According to publication PMC6736837, “^18F-labelled triazolyl-linked argininamides targeting the neuropeptide Y Y1R for PET imaging of mammary carcinoma” (Scientific Reports, 2019):

Key:
hY1R = target: T1, hY1R (Homo sapiens, UniProt P25929); test: Y1R competition binding with [^3H]UR-MK299 on SK-N-MC neuroblastoma cells; settings: displacement of [^3H]UR-MK299, SK-N-MC neuroblastoma cells
T1 construct: endogenous in cells; host or cells: SK-N-MC neuroblastoma cells
T1 sequence (P25929 1-384): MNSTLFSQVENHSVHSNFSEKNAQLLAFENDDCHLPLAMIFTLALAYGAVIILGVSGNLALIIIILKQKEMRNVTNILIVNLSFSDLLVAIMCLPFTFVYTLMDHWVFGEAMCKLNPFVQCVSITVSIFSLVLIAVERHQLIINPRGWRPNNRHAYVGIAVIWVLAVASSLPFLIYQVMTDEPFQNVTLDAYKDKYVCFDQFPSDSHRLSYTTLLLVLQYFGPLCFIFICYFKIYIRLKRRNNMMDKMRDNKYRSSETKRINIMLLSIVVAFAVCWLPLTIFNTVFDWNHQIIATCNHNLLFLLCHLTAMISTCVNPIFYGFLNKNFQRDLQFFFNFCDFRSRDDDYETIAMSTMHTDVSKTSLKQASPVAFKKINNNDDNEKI
Description: (§1) Data analysis (four-parameter sigmoidal fitting of specifically bound radioligand plotted against log(concentration) competitor) was performed using SigmaPlot (Systat Software, San Jose, CA, USA) (Y1R binding). IC50 values were converted to Ki values according to the Cheng-Prusoff equation[24].

hY2R = target: T2, hY2R (Homo sapiens, UniProt P49146); test: Competition binding on CHO-hY2-Gqi5-mtAEQ cells with [^3H]propionyl-pNPY; settings: for selectivity for Y1R over Y2R (multiple of the Ki value for Y1R): calculated from Ki values; for binding to Y2R (in words): maximum concentration of 10 µM
T2 construct: expressed in transfected cells; host or cells: CHO cells (CHO-hY2-Gqi5-mtAEQ)
T2 sequence (P49146 1-381): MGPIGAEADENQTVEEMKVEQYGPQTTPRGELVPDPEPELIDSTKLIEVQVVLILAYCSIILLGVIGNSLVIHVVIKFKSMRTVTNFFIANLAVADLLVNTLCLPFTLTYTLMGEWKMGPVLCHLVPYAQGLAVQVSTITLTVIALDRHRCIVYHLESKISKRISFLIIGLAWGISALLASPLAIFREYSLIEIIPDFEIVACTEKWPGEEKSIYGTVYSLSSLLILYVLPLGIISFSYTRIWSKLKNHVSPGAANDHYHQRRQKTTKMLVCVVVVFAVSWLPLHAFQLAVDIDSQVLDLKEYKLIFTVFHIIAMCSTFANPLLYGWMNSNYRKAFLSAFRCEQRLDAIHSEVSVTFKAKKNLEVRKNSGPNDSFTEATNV
Description: as §1
(§2) Table S1: Structures, in-vitro Y1 receptor affinities and selectivities of potential Y1R PET radioligands. For Y2R, Y4R and Y5R, Ki values are given in the first row. In the second row, the calculated selectivities for Y1R over Y2R, Y4R and Y5R are given as a multiple of the Ki value for […]
(§3) compound structure hY1R hY2R hY4R hY5R
(§4) Ki ± SEMa Kiselectivity selectivity selectivity […]
(§5) aDetermined by competition binding on SK-N-MC neuroblastoma cells using the radioligand [3H]UR-MK2994.
(§6) Mean Ki values ± SEM are the results of three individual experiments each performed in triplicate. bDetermined by competition binding at CHO-hY2-Gqi5-mtAEQ cells and HEC-1b hY5R cells using the radioligand [3H]propionyl-pNPY. Two independent experiments were performed in triplicate. cDetermined by competition binding on CHO-hY4R-Gqi5-mtAEQ cells using the radioligand [3H]UR-KK200.
(§7) Two independent experiments were performed in triplicate.
(§8) SEM = standard error of the mean. […]

hY4R = target: T3, hY4R (Homo sapiens, UniProt P50391); test: Competition binding on CHO-hY4R-Gqi5-mtAEQ cells with [^3H]UR-KK200; settings: for Ki: CHO-hY4R-Gqi5-mtAEQ cells, [^3H]UR-KK200; for selectivity for Y1R over Y4R (multiple of the Ki value for Y1R): calculated from Ki values; for binding to Y4R (in words): maximum concentration of 10 µM
T3 construct: expressed in transfected cells; host or cells: CHO cells (CHO-hY4R-Gqi5-mtAEQ)
T3 sequence (P50391 whole entry): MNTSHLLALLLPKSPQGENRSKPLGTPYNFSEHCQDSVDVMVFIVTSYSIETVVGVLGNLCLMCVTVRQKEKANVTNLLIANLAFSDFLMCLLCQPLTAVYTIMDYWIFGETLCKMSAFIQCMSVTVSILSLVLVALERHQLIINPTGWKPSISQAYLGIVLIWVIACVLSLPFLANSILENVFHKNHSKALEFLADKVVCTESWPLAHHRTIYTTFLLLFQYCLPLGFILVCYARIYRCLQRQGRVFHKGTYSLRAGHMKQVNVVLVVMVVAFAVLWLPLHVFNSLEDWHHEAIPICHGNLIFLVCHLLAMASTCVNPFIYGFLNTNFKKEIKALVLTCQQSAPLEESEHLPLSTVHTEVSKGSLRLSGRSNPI
Description: as §1, §2, §3, §4, §5, §6, §7, §8

hY5R = target: T4, hY5R (Homo sapiens, UniProt Q15761); test: Competition binding on HEC-1b hY5R cells with [^3H]propionyl-pNPY; settings: for selectivity for Y1R over Y5R (multiple of the Ki value for Y1R): calculated from Ki values; for binding to Y5R (in words): maximum concentration of 10 µM
T4 construct: expressed in transfected cells; host or cells: HEC-1b cells (HEC-1b hY5R)
T4 sequence (Q15761 1-445): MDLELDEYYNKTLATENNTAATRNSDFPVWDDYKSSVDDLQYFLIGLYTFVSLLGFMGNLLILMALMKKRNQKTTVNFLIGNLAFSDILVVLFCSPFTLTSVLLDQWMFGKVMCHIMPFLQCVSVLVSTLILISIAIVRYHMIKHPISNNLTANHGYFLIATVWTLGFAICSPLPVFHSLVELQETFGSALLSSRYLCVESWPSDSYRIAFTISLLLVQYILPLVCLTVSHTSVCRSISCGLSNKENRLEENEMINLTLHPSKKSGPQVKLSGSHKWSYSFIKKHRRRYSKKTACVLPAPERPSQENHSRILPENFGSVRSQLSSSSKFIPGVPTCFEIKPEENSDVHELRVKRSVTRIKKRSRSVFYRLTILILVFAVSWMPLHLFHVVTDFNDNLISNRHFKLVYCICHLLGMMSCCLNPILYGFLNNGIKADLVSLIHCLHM
Description: as §1, §2, §3, §4, §5, §6, §7, §8

Ki (hY1R) [µM]	Ki (hY2R) [µM]	selectivity for Y1R over Y2R (multiple of the Ki value for Y1R) (hY2R) [×]	Ki (hY4R) [µM]	selectivity for Y1R over Y4R (multiple of the Ki value for Y1R) (hY4R) [×]	Ki (hY5R) [µM]	selectivity for Y1R over Y5R (multiple of the Ki value for Y1R) (hY5R) [×]	SMILES	binding to Y2R (in words) (hY2R)	binding to Y4R (in words) (hY4R)	binding to Y5R (in words) (hY5R)
0.00094							C#CCNC(=O)N=C(N)NCCC[C@@H](NC(=O)C(c1ccccc1)c1ccccc1)C(=O)NCc1ccc(O)cc1 [compound 7]			
0.208	> 10	> 48	> 3	> 14	> 15	> 72	N/C(=N/C(=O)NCc1cn([C@@H]2OC(CF)[C@@H](O)C(O)C2O)nn1)NCCC[C@@H](NC(=O)C(c1ccccc1)c1ccccc1)C(=O)NCc1ccc(O)cc1 (stereo partly drawn) [compound 11, (2R)‐5‐{[(1Z)‐Amino({[({1‐[(2R,5S)‐6‐(fluoromethyl)‐3,4,5‐trihydroxyoxan‐2‐yl]‐1H‐1,2,3‐triazol‐4‐yl}methyl)carbamoyl]imino})methyl]amino}‐2‐(2,2‐diphenylacetamido)‐N‐[(4‐hydroxyphenyl)-methyl]pentanamide]	None of the three compounds showed considerable binding	None of the three compounds showed considerable binding	None of the three compounds showed considerable binding
0.0028	> 10	> 3610	> 10	> 3610	> 15	> 5415	N/C(=N/C(=O)NCc1cn(CCOCCF)nn1)NCCC[C@@H](NC(=O)C(c1ccccc1)c1ccccc1)C(=O)NCc1ccc(O)cc1 [compound 12, (2R)‐5‐{[(1Z)‐Amino({[({1‐[2‐(2‐fluoroethoxy)ethyl]‐1H‐1,2,3‐triazol‐4‐yl}methyl)carbamoyl]-imino})methyl]amino}‐2‐(2,2‐diphenylacetamido)‐N‐[(4‐hydroxyphenyl)methyl]pentanamide]	None of the three compounds showed considerable binding	None of the three compounds showed considerable binding	None of the three compounds showed considerable binding
0.029	> 5	> 173	> 10	> 345	> 10	> 345	N/C(=N/C(=O)NCc1cn(CCOCCOCCOCCF)nn1)NCCC[C@@H](NC(=O)C(c1ccccc1)c1ccccc1)C(=O)NCc1ccc(O)cc1 [compound 13, (2R)‐5‐{[(1Z)‐Amino[({[1‐(2‐{2‐[2‐(2‐fluoroethoxy)ethoxy]ethoxy}ethyl)‐1H‐1,2,3‐triazol‐4‐yl]methyl}carbamoyl)imino]methyl]amino}‐2‐(2,2‐diphenylacetamido)‐N‐[(4‐hydroxyphenyl)-methyl]pentanamide]	None of the three compounds showed considerable binding	None of the three compounds showed considerable binding	None of the three compounds showed considerable binding
